# Article PMC9704104, “Towards safer anti-inflammatory therapy: synthesis of new thymol–pyrazole hybrids as dual COX-2/5-LOX inhibitors” (Journal of Enzyme Inhibition and Medicinal Chemistry, 2022)
# Values joined by “and” are separate entries in the source; they are usually repeats but may differ in a detail not shown here. Identical values can stand only once. “Also recorded” adds a separate entry of the source. Like-named read-outs stand apart in the source and are kept apart here. Marks after values point to notes of the source that are not given here.
# Key:
# gastric mucosa = assay: In vivo gastric ulcerogenic activity (gross examination of gastric mucosa); conditions: fasted rats, 60 mg/kg orally, six hours after treatment
# [1] = system: formalin-induced rat paw oedema; assay: Formalin-induced paw oedema test (acute inflammation model); type: in vivo; conditions: for % Inhibition of oedema volume, Mean ± SD / inhibition in vivo at 5 mg/kg / Volume of oedema (ml) 4h, Mean ± SD / % inhibition of paw oedema compared with reference drugs (in words): 4 h; for inhibition in vivo at 5 mg/kg: Rattus norvegicus; for inhibition in vivo at 5 mg/kg / Volume of oedema (ml) 4h, Mean ± SD: po; for % inhibition of paw oedema compared with reference drugs (in words): comparison with celecoxib or diclofenac sodium; for % Relative potency (4h) celecoxib / % Relative potency (4h) celecoxib, Mean ± SD: relative to % inhibition of celecoxib at 4 h; for % Relative potency (4h) diclofenac, Mean ± SD / % Relative potency (4h) diclofenac: relative to % inhibition of diclofenac at 4 h
# Method: Animals Adult female albino rats weighing 150-250 g were used (Experimental Animal Centre in Alexandria University). All animals accessed to food and water ad libitum and were housed in 12 h dark/light cycle in a controlled condition at 23-250C. They were allowed to acclimatize for 1 week prior to experimentation. Procedures involving animals and their care were conducted in conformity with the Guide for the Care and Use of Laboratory Animals published by US National Institute of Health4 (NIH publication No. 83-23, revised) and following the ethical guidelines of Alexandria University on laboratory animals. In all tests, adequate considerations were adopted to reduce pain or discomfort of animals (Approved by AlexU-IACUC) 3. […]
# Formalin-induced paw edema test (acute inflammation model):
# A solution of freshly prepared formalin 5% was used as a phlogistic agent. A mark was made on the lateral malleolus of the rats’ paws delineating the injection sites. The initial volume of paw was measured by means of digital calibrated Vernier caliper .
# After 45 minutes, 40 μl formalin were injected subcutaneously into the sub plantar tissue of the right hind paw of all groups under light ether anesthesia . An equal volume of saline was injected into the left hind paw and served as internal control for the degree of inflammation in the right hind paw. 5, 6 The volume of paw was measured in different treatment groups, 4 h following the formalin injection and the amount of increase in paw volume (edema volume) was calculated by subtracting the volumes before and 4 h after the injection of formalin. Edema was expressed as an increase in the volume of paw, and the percentage of edema inhibition (or percent protection against inflammation) for each rat and each group was calculated according to the following equation: […]
# Where Vt is the mean volume of edema at specific time interval (4 h) and Vo is the mean volume of edema […]
# Relative potency of the tested compounds was expressed as % inhibition of edema for the tested compounds
# COX-1 = biological target: T1, COX-1 (Ovis aries, UniProt P05979); assay: In vitro COX-1 inhibitory assay (Cayman colorimetric COX (ovine) inhibitor screening assay kit); type: biochemical; conditions: mean of three replicates ± SD
# T1 construct: purchased Cayman chemicals 560131
# T1 sequence (P05979 25-600): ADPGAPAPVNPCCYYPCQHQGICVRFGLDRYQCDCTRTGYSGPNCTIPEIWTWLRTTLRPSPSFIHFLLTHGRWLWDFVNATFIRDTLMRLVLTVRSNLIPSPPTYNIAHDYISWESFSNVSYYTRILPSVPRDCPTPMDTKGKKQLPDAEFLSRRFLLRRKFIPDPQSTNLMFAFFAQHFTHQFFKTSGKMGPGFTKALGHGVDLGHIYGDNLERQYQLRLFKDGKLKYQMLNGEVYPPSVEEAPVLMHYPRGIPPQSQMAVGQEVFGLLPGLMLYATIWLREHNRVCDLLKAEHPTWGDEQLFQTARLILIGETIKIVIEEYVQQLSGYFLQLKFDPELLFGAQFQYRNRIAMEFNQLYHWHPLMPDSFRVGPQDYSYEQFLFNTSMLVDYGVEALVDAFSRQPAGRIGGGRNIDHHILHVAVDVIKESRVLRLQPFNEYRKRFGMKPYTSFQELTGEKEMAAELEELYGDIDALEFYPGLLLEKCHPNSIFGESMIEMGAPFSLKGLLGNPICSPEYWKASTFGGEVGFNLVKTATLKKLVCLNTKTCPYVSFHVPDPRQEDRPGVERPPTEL
# Method: (Page: S20, Supplementary file).
# Anti-inflammatory activity
# In vitro COX-1 and COX-2 inhibitory assay […]
# supplied by Cayman chemicals, Ann Arbor, MI, USA according to reported method 1. The colorimetric COX inhibitor screening assay utilizes the peroxidase component of cyclooxygenase. The peroxidase activity was assayed calorimetrically by monitoring the appearance of oxidized N,N,N',N'-tetramethyl-1,4-phenylenediamine (TMPD) at 590nm. The appearance of reagent was carried out following the instructions […]
# The half- maximal inhibitor concentrations (IC50µM) were determined and the selectivity index (SI) values were calculated as IC50 (COX-1)/IC50 (COX-2).
# 1) Background wells- 160 µL of assay buffer and 10 µL of heme were added to background wells.
# 2) The 100% Initial activity wells- 150 µL of assay buffer, 10 µL of heme and 10 µL of enzyme (COX-1 or COX-2) were added.
# 3) Inhibitor well- 150 µL of assay buffer, 10 µL of heme and 10 µL of enzyme were added.
# 4) 10 µL of inhibitor (3 concentrations) in DMSO was added to the inhibitor wells to yield a final […]
# 5) 10 µL of solvent (DMSO) was added to the 100% Initial activity wells and background wells.
# 7) 20 µL of colorimetric substrate solution (TMPD) was added to all wells.
# 8) 20 µL of arachidonic acid was added to all wells to yield a final concentration of 100 µM.
# 10) The absorbance was measured at 590 nm using a plate reader.
# The calculations were carried out in the following manner:
# 1) The average absorbance of all samples was determined.
# 2) The absorbance of background wells was subtracted from absorbance of the 100% Initial activity […]
# 3) Percent inhibition = (100% Initial activity – Inhibitor wells/ 100% Initial activity)∗ 100 […]
# Place the 96-well plate on a shaker for at least five minutes. […]
# 5-LOX = assay: In vitro 5-LOX inhibitory assay (Abnova 5-LOX inhibitor screening assay kit); type: biochemical
# From the text: The newly synthesised compounds were screened for their ability to inhibit 5-LOX enzymes. […] (Page: S21, Supplementary file). […]
# In vitro LOX inhibitory assay
# Inhibitor Screening Assay Kit detects and measures the hydroperoxides produced in the lipoxygenation reaction using a purified LOX. The detection reaction is equally sensitive to hydroperoxides at various positions within the fatty acid and will work with fatty acids of any carbon length. It is thus a general detection method for 5-LOX and can be used to screen libraries of compounds for those which inhibit 5 -LOX enzymes.
# 1) Blank Wells- add 100 µL of assay buffer to at least two wells.
# 2) Positive Control Wells- Lipoxygenase (15-LO standard) add 90 µL 15-LO and 10 µL of assay buffer […]
# 3) 100% Initial Activity Wells- add 90 µL 15-LO and 10 µL of solvent (DMSO) (the same solvent to dissolve the inhibitor) to two wells. The 100% initial activity wells should result in approximately 10 […]
# 4) Inhibitor Wells- add 90 µL of sample and I10 µL of inhibitor to two wells.
# 5) Initiate the reaction by adding 10 µL of substrate (either arachidonic acid or linoleic acid) to all the wells. Place the 96-well plate on a shaker for at least five minutes.
# 6) Add 100 µL of chromogen to each well to stop enzyme catalysis and develop the reaction. Cover with a plate cover and place the 96-well plate on a shaker for at least five minutes.
# 7) Remove the cover and read the absorbance at 490-500 nm using a plate reader.
# Inhibitors were dissolved in DMSO. The inhibitors were added to the assay in a final volume of 10 µL before initiating with substrate. Three concentrations were prepared (25, 50 and 100 µM) to determine the concentration produced 50% enzyme inhibition.
# 2) The absorbance of blank wells was subtracted from absorbance of the 100% Initial activity and the […]
# [2] = group mean ± SD, 5 mg/kg orally
# [3] = 4 h minus 0, group mean ± SD, 5 mg/kg orally
# [4] = read-out: % Inhibition of oedema volume, 4 h, individual rats 1-3, 5 mg/kg orally
# [5] = read-out: % Inhibition of oedema volume, Mean ± SD, 4 h, group mean ± SD, 5 mg/kg orally
# [6] = group mean ± SD, 5 mg/kg orally, read-out: % Inhibition of oedema volume, Mean ± SD
# [7] = individual rats 1-3, 5 mg/kg orally, read-out: % Inhibition of oedema volume
# [8] = individual rats 1-3, 5 mg/kg orally, 5 mg/kg
SMILES,Gross appearance of gastric mucosa (ulcerogenic potential) (gastric mucosa),"% Inhibition of oedema volume, Mean ± SD [1, 2]","Abs diff., Mean ± SD [1, 3]","inhibition in vivo at 5 mg/kg [1, 4] [%]","inhibition in vivo at 5 mg/kg [1, 5] [%]","Volume of oedema (ml) 4h, Mean ± SD ([1]; 5 mg/kg)",IC50 (COX-1) [µM],IC50 (5-LOX) [µM],Gross appearance of gastric mucosa (ulcerogenic potential) (gastric mucosa; 60 mg/kg),% inhibition of paw oedema compared with reference drugs (in words) ([1]; 5 mg/kg orally),"inhibition in vivo at 5 mg/kg [1, 6] [%]","inhibition in vivo at 5 mg/kg [1, 7] [%]",% Relative potency (4h) celecoxib ([1]; individual rats 1-3),"% Relative potency (4h) diclofenac, Mean ± SD ([1]; group mean ± SD) [%]",% Relative potency (4h) diclofenac ([1]; individual rats 1-3),"% Relative potency (4h) celecoxib, Mean ± SD ([1]; group mean ± SD) [%]","Volume of oedema (ml) 0 [1, 8] [mL]","Volume of oedema (ml) 4h ([1]; 4 h after formalin, individual rats 1-3, 5 mg/kg orally, 5 mg/kg) [mL]","Abs diff. ([1]; 4 h minus 0, individual rats 1-3, 5 mg/kg orally, 5 mg/kg)"
"Cc1ccc(-c2cc(C(F)(F)F)nn2-c2ccc(S(N)(=O)=O)cc2)cc1 [Celecoxib, reference compound]",no ulceration,36.33 ± 2.05%,1.38^a ± 0.06,35.2,36.4,5.69^a ± 0.02 ml,–,–,–,–,–,–,–,–,–,–,–,–,–
"Cc1ccc(C(C)C)c(O)c1C=NNC(=O)c1cc(-c2ccccc2)n[nH]1 [Compound 4a, N'-(2-Hydroxy-3-isopropyl-6-methylbenzylidene)-3-phenyl-1H-pyrazole-5-carbohydrazide]",–,–,–,–,–,–,10.3 ± 0.1,3.05 ± 0.067,No gross ulceration,double % inhibition exhibited by Celecoxib,81.9,84.2,239.70% and 192.90% and 244.0%,156.4 ± 20.52,178.10% and 137.30% and 153.80%,–,–,–,–
"Cc1ccc(C(C)C)c(O)c1C=NNC(=O)c1cc(-c2ccc(Br)cc2)n[nH]1 [Compound 4b, 3-(4-Bromophenyl)-N'-(2-hydroxy-3-isopropyl-6-methylbenzylidene)-1H-pyrazole-5-carbohydrazide]",–,–,–,–,–,–,11.8 ± 0.15,1.84 ± 0.06,No gross ulceration,–,–,55.9,159.0% and 136.90% and 150.70%,103.5 ± 12.68,118.10% and 97.50% and 95.0%,148.9 ± 11.16,5.15,–,–
"Cc1ccc(C(C)C)c(O)c1C=NNC(=O)c1cc(-c2ccccc2)n(-c2ccc(S(N)(=O)=O)cc2)n1 [Compound 8a, 4-(3-(2–(2-Hydroxy-3-isopropyl-6-methylbenzylidene)hydrazine-1-carbonyl)-5-phenyl-1H-pyrazol-1-yl)benzenesulfonamide]",–,–,–,–,–,–,11.2 ± 0.15,1.96 ± 0.036,variable degrees of hyperaemia; also recorded: Hyperemia without gross ulceration,slightly less % inhibition than that of Diclofenac sodium,–,40.1,114.10% and 92.90% and 113.30%,74.10 ± 9.64,84.80% and 66.10% and 71.40%,106.8 ± 12.02,5.02,6.35,–
"Cc1ccc(C(C)C)c(O)c1C=NNC(=O)c1cc(-c2ccc(Br)cc2)n(-c2ccccc2)n1 [Compound 8e, 5-(4-Bromophenyl)-N'-(2-hydroxy-3-isopropyl-6-methylbenzylidene)-1-phenyl-1H-pyrazole-3-carbohydrazide]",–,–,–,–,–,–,11.24 ± 0.075,2.56 ± 0.025,–,–,–,59.5,169.20% and 127.40% and 150.70%,103.8 ± 19.09,125.70% and 90.70% and 95.0%,149.1 ± 20.95,–,–,–
"COc1ccc(-c2cc(C(=O)NN=Cc3c(C)ccc(C(C)C)c3O)nn2-c2ccccc2)cc1 [Compound 8f, 5-(4-Methoxyphenyl)-N'-(2-hydroxy-3-isopropyl-6-methylbenzylidene)-1-phenyl-1H-pyrazole-3-carbohydrazide]",–,–,–,–,–,–,11.2 ± 0.57,2.91 ± 0.064,–,slightly less % inhibition than that of Diclofenac sodium,46.3 ± 3.67,50.5,143.60% and 115.50% and 124.0%,89.03 ± 15.43,106.70% and 82.20% and 78.20%,127.7 ± 14.41,5.15,–,1.20
"O=C(O)Cc1ccccc1Nc1c(Cl)cccc1Cl [Diclofenac sodium, reference compound]",no ulceration,52.53^b ± 4.59%,1.03^ab ± 0.12,47.3,52.4,5.30^ab ± 0.09 ml,–,–,–,–,–,–,–,–,–,–,–,–,–
